Starred links: 1 amine or outer side, 2 acyl side, 3 side chain; linkers in the order of their positions; H or OH if unused. Positions of bridges follow the written chain, without caps; N, C: chain ends. Non-standard residues stand in square brackets, D forms with d. Residues, ends and D or L forms follow the SMILES beside them. *: point of attachment. X23 = NS(=O)(=O)c1cccc(C(=O)Nc2cccc(C[C@H](N[*:1])C(=O)[*:2])c2)c1; X24 = NS(=O)(=O)c1ccc(C(=O)Nc2cccc(C[C@H](N[*:1])C(=O)[*:2])c2)cc1; X10 = NS(=O)(=O)c1cc(C(=O)Nc2cccc(C[C@H](N[*:1])C(=O)[*:2])c2)cs1; X11 = NS(=O)(=O)c1ccc(C(=O)Nc2cccc(C[C@H](N[*:1])C(=O)[*:2])c2)s1; X21 = NS(=O)(=O)CCC(=O)Nc1cccc(C[C@H](N[*:1])C(=O)[*:2])c1; DOTA = O=C(O)CN1CCN(CC(=O)O)CCN(CC(=O)*)CCN(CC(=O)O)CC1; Benzoyl(4-SO2NH2) = NS(=O)(=O)c1ccc(C(=O)*)cc1; X7 = O=C([C@H](Cc1cccc(N[*:3])c1)N[*:1])[*:2]; Propanoyl(3-SO2NH2) = NS(=O)(=O)CCC(=O)*; Phe(4-NH2) = Nc1ccc(C[C@H](N)C(=O)O)cc1; mXylylene = c1cc(C[*:1])cc(C[*:2])c1; X36 = NS(=O)(=O)Cc1ccc(C(=O)*)cc1; X2 = O=C(CN1CCC(N[*:1])CC1)[*:2]; X26 = NS(=O)(=O)c1cccc(C(=O)*)c1; X17 = NS(=O)(=O)c1cc(C(=O)*)cs1; X27 = NS(=O)(=O)c1ccc(C(=O)*)s1; X29 = c1cc2cn[nH]c2cc1CN*
Legend:
[1] = target: T1, CAIX-expressing human HT-29 colorectal cancer cells (Homo sapiens, UniProt Q16790); experiment: FACS binding assay (IC50 determination, competition with tracer 3BP-2776 or 3BP-4149); details: FACS binding assay, HT-29 cells, competition with tracer 3BP-4149 (3 nM, Cy5-labeled), 4° C., 1 hour; read-out: pIC50 category (activity) (converted)
T1 construct: CAIX-expressing human HT-29 colorectal cancer cells; host or cells: HT-29 human colorectal cancer cells
Outline: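 HT-29 cells in FACS buffer (PBS, 1% FCS) at 500.000 cells/ml were exposed to compounds competing with a labelled tracer, with biotinylated compounds detected by 1 μg/mL APC-streptavidin for 30 min on ice. APC/Cy5 median fluorescence was read by flow cytometry and IC50 derived by 4PL fit.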

[2] = target: T2, human carbonic anhydrase IX (hCAIX-Fc) (Homo sapiens, UniProt Q16790); experiment: Surface plasmon resonance assay with hCAIX-Fc; format: binding; details: 25° C.; for t1/2 category (activity): SPR dissociation half-life, hCAIX-Fc; for Kd: SPR, hCAIX-Fc captured, read-out: pKD category (activity) (converted)
T2 construct: purchased SinoBliological (Sino Biological) 10107-H02H

Row | SMILES | IC50 [1] [nM] | t1/2 category (activity) [2] | Kd [2] [nM]
1 | CC(C)C[C@@H]1NC(=O)[C@H](Cc2c[nH]c3ccccc23)NC(=O)[C@H](CCC(=O)NCc2ccc3cn[nH]c3c2)NC(=O)[C@H]2CCCN2C(=O)[C@H](CCC(=O)O)NC(=O)[C@@H](NC(=O)[C@H](Cc2ccc(O)cc2)NC(=O)[C@@H](NC(=O)CN2CCC(NC(=O)CN3CCN(CC(=O)O)CCN(CC(=O)O)CCN(CC(=O)O)CC3)CC2)C(C)C)CSCc2cccc(c2)CSC[C@@H](C(N)=O)NC(=O)[C@H](CO)NC(=O)[C@H](Cc2c[nH]c3ccccc23)NC(=O)[C@H]([C@@H](C)O)NC1=O [3BP-4387] ({DOTA}-[X2]VYCE[dP]E(X29)WLTWSC-NH2; linker 4-13 via mXylylene) | 10 to 79.4 | A (t1/2>15.0 minutes) | < 10
2 | CC(C)C[C@@H]1NC(=O)[C@H](Cc2ccc(NC(=O)c3ccc(S(N)(=O)=O)cc3)cc2)NC(=O)[C@H](CC(=O)O)NC(=O)[C@H]2CCCN2C(=O)[C@H](CCC(=O)O)NC(=O)[C@@H](NC(=O)[C@H](Cc2ccc(O)cc2)NC(=O)[C@@H](NC(=O)CN2CCC(NC(=O)CN3CCN(CC(=O)O)CCN(CC(=O)O)CCN(CC(=O)O)CC3)CC2)C(C)C)CSCc2cccc(c2)CSC[C@@H](C(N)=O)NC(=O)[C@H](CO)NC(=O)[C@H](Cc2c[nH]c3ccccc23)NC(=O)[C@H]([C@@H](C)O)NC1=O [3BP-4398] ({DOTA}-[X2]VYCE[dP]D[Phe(4-NH2)](Benzoyl(4-SO2NH2))LTWSC-NH2; linker 4-13 via mXylylene) | 10 to 79.4 | C (t1/2 between 2.1 and 5.0 minutes) | < 10
3 | CC(C)C[C@@H]1NC(=O)[C@H](Cc2ccc(NC(=O)CCS(N)(=O)=O)cc2)NC(=O)[C@H](CC(=O)O)NC(=O)[C@H]2CCCN2C(=O)[C@H](CCC(=O)O)NC(=O)[C@@H](NC(=O)[C@H](Cc2ccc(O)cc2)NC(=O)[C@@H](NC(=O)CN2CCC(NC(=O)CN3CCN(CC(=O)O)CCN(CC(=O)O)CCN(CC(=O)O)CC3)CC2)C(C)C)CSCc2cccc(c2)CSC[C@@H](C(N)=O)NC(=O)[C@H](CO)NC(=O)[C@H](Cc2c[nH]c3ccccc23)NC(=O)[C@H]([C@@H](C)O)NC1=O [3BP-4400] ({DOTA}-[X2]VYCE[dP]D[Phe(4-NH2)](Propanoyl(3-SO2NH2))LTWSC-NH2; linker 4-13 via mXylylene) | < 10 | A (t1/2>15.0 minutes) | < 10
4 | CC(C)C[C@@H]1NC(=O)[C@H](Cc2ccc(NC(=O)c3csc(S(N)(=O)=O)c3)cc2)NC(=O)[C@H](CC(=O)O)NC(=O)[C@H]2CCCN2C(=O)[C@H](CCC(=O)O)NC(=O)[C@@H](NC(=O)[C@H](Cc2ccc(O)cc2)NC(=O)[C@@H](NC(=O)CN2CCC(NC(=O)CN3CCN(CC(=O)O)CCN(CC(=O)O)CCN(CC(=O)O)CC3)CC2)C(C)C)CSCc2cccc(c2)CSC[C@@H](C(N)=O)NC(=O)[C@H](CO)NC(=O)[C@H](Cc2c[nH]c3ccccc23)NC(=O)[C@H]([C@@H](C)O)NC1=O [3BP-4401] ({DOTA}-[X2]VYCE[dP]D[Phe(4-NH2)](X17)LTWSC-NH2; linker 4-13 via mXylylene) | < 10 | A (t1/2>15.0 minutes) | < 10
5 | CC(C)C[C@@H]1NC(=O)[C@H](Cc2ccc(NC(=O)c3ccc(S(N)(=O)=O)s3)cc2)NC(=O)[C@H](CC(=O)O)NC(=O)[C@H]2CCCN2C(=O)[C@H](CCC(=O)O)NC(=O)[C@@H](NC(=O)[C@H](Cc2ccc(O)cc2)NC(=O)[C@@H](NC(=O)CN2CCC(NC(=O)CN3CCN(CC(=O)O)CCN(CC(=O)O)CCN(CC(=O)O)CC3)CC2)C(C)C)CSCc2cccc(c2)CSC[C@@H](C(N)=O)NC(=O)[C@H](CO)NC(=O)[C@H](Cc2c[nH]c3ccccc23)NC(=O)[C@H]([C@@H](C)O)NC1=O [3BP-4402] ({DOTA}-[X2]VYCE[dP]D[Phe(4-NH2)](X27)LTWSC-NH2; linker 4-13 via mXylylene) | < 10 | A (t1/2>15.0 minutes) | < 10
6 | CC(C)C[C@@H]1NC(=O)[C@H](Cc2cccc(NC(=O)c3ccc(S(N)(=O)=O)cc3)c2)NC(=O)[C@H](CC(=O)O)NC(=O)[C@H]2CCCN2C(=O)[C@H](CCC(=O)O)NC(=O)[C@@H](NC(=O)[C@H](Cc2ccc(O)cc2)NC(=O)[C@@H](NC(=O)CN2CCC(NC(=O)CN3CCN(CC(=O)O)CCN(CC(=O)O)CCN(CC(=O)O)CC3)CC2)C(C)C)CSCc2cccc(c2)CSC[C@@H](C(N)=O)NC(=O)[C@H](CO)NC(=O)[C@H](Cc2c[nH]c3ccccc23)NC(=O)[C@H]([C@@H](C)O)NC1=O [3BP-4405] ({DOTA}-[X2]VYCE[dP]D[X24]LTWSC-NH2; linker 4-13 via mXylylene) | < 10 | A (t1/2>15.0 minutes) | < 10
7 | CC(C)C[C@@H]1NC(=O)[C@H](Cc2cccc(NC(=O)c3ccc(CS(N)(=O)=O)cc3)c2)NC(=O)[C@H](CC(=O)O)NC(=O)[C@H]2CCCN2C(=O)[C@H](CCC(=O)O)NC(=O)[C@@H](NC(=O)[C@H](Cc2ccc(O)cc2)NC(=O)[C@@H](NC(=O)CN2CCC(NC(=O)CN3CCN(CC(=O)O)CCN(CC(=O)O)CCN(CC(=O)O)CC3)CC2)C(C)C)CSCc2cccc(c2)CSC[C@@H](C(N)=O)NC(=O)[C@H](CO)NC(=O)[C@H](Cc2c[nH]c3ccccc23)NC(=O)[C@H]([C@@H](C)O)NC1=O [3BP-4406] ({DOTA}-[X2]VYCE[dP]D[X7](X36)LTWSC-NH2; linker 4-13 via mXylylene) | < 10 | A (t1/2>15.0 minutes) | < 10
8 | CC(C)C[C@@H]1NC(=O)[C@H](Cc2cccc(NC(=O)CCS(N)(=O)=O)c2)NC(=O)[C@H](CC(=O)O)NC(=O)[C@H]2CCCN2C(=O)[C@H](CCC(=O)O)NC(=O)[C@@H](NC(=O)[C@H](Cc2ccc(O)cc2)NC(=O)[C@@H](NC(=O)CN2CCC(NC(=O)CN3CCN(CC(=O)O)CCN(CC(=O)O)CCN(CC(=O)O)CC3)CC2)C(C)C)CSCc2cccc(c2)CSC[C@@H](C(N)=O)NC(=O)[C@H](CO)NC(=O)[C@H](Cc2c[nH]c3ccccc23)NC(=O)[C@H]([C@@H](C)O)NC1=O [3BP-4407] ({DOTA}-[X2]VYCE[dP]D[X21]LTWSC-NH2; linker 4-13 via mXylylene) | < 10 | A (t1/2>15.0 minutes) | < 10
9 | CC(C)C[C@@H]1NC(=O)[C@H](Cc2ccc(NC(=O)c3cccc(S(N)(=O)=O)c3)cc2)NC(=O)[C@H](CC(=O)O)NC(=O)[C@H]2CCCN2C(=O)[C@H](CCC(=O)O)NC(=O)[C@@H](NC(=O)[C@H](Cc2ccc(O)cc2)NC(=O)[C@@H](NC(=O)CN2CCC(NC(=O)CN3CCN(CC(=O)O)CCN(CC(=O)O)CCN(CC(=O)O)CC3)CC2)C(C)C)CSCc2cccc(c2)CSC[C@@H](C(N)=O)NC(=O)[C@H](CO)NC(=O)[C@H](Cc2c[nH]c3ccccc23)NC(=O)[C@H]([C@@H](C)O)NC1=O [3BP-4408] ({DOTA}-[X2]VYCE[dP]D[Phe(4-NH2)](X26)LTWSC-NH2; linker 4-13 via mXylylene) | < 10 | A (t1/2>15.0 minutes) | < 10
10 | CC(C)C[C@@H]1NC(=O)[C@H](Cc2cccc(NC(=O)c3cccc(S(N)(=O)=O)c3)c2)NC(=O)[C@H](CC(=O)O)NC(=O)[C@H]2CCCN2C(=O)[C@H](CCC(=O)O)NC(=O)[C@@H](NC(=O)[C@H](Cc2ccc(O)cc2)NC(=O)[C@@H](NC(=O)CN2CCC(NC(=O)CN3CCN(CC(=O)O)CCN(CC(=O)O)CCN(CC(=O)O)CC3)CC2)C(C)C)CSCc2cccc(c2)CSC[C@@H](C(N)=O)NC(=O)[C@H](CO)NC(=O)[C@H](Cc2c[nH]c3ccccc23)NC(=O)[C@H]([C@@H](C)O)NC1=O [3BP-4409] ({DOTA}-[X2]VYCE[dP]D[X23]LTWSC-NH2; linker 4-13 via mXylylene) | < 10 | A (t1/2>15.0 minutes) | < 10
11 | CC(C)C[C@@H]1NC(=O)[C@H](Cc2cccc(NC(=O)c3csc(S(N)(=O)=O)c3)c2)NC(=O)[C@H](CC(=O)O)NC(=O)[C@H]2CCCN2C(=O)[C@H](CCC(=O)O)NC(=O)[C@@H](NC(=O)[C@H](Cc2ccc(O)cc2)NC(=O)[C@@H](NC(=O)CN2CCC(NC(=O)CN3CCN(CC(=O)O)CCN(CC(=O)O)CCN(CC(=O)O)CC3)CC2)C(C)C)CSCc2cccc(c2)CSC[C@@H](C(N)=O)NC(=O)[C@H](CO)NC(=O)[C@H](Cc2c[nH]c3ccccc23)NC(=O)[C@H]([C@@H](C)O)NC1=O [3BP-4412] ({DOTA}-[X2]VYCE[dP]D[X10]LTWSC-NH2; linker 4-13 via mXylylene) | < 10 | A (t1/2>15.0 minutes) | < 10
12 | CC(C)C[C@@H]1NC(=O)[C@H](Cc2cccc(NC(=O)c3ccc(S(N)(=O)=O)s3)c2)NC(=O)[C@H](CC(=O)O)NC(=O)[C@H]2CCCN2C(=O)[C@H](CCC(=O)O)NC(=O)[C@@H](NC(=O)[C@H](Cc2ccc(O)cc2)NC(=O)[C@@H](NC(=O)CN2CCC(NC(=O)CN3CCN(CC(=O)O)CCN(CC(=O)O)CCN(CC(=O)O)CC3)CC2)C(C)C)CSCc2cccc(c2)CSC[C@@H](C(N)=O)NC(=O)[C@H](CO)NC(=O)[C@H](Cc2c[nH]c3ccccc23)NC(=O)[C@H]([C@@H](C)O)NC1=O [3BP-4413] ({DOTA}-[X2]VYCE[dP]D[X11]LTWSC-NH2; linker 4-13 via mXylylene) | < 10 | A (t1/2>15.0 minutes) | < 10

Source: patent publication US20250339569A1, “CARBONIC ANHYDRASE IX LIGANDS” (priority 2021, published 2025)
